Experimental data taken from ChEMBL document CHEMBL1201862, “PubChem BioAssay data set” (2004).
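Five concentrations, 48 hours, 96-well plates. GI50 marks 50% less growth.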 Active and inactive are the calls of the source. Rule as the data show it: active = GI50 up to about 1.1 µM and inactive = higher.

Experiments:
Assay in all cases: DTP human tumour cell line panel, 48 h
786-0 = test system: 786-0
A549 = test system: A549
ACHN = test system: ACHN
BT-549 = test system: BT-549
CAKI-1 = test system: CAKI-1
CCRF-CEM = test system: CCRF-CEM
COLO 205 = test system: COLO 205
DU-145 = test system: DU-145
EKVX = test system: EKVX
HCC 2998 = test system: HCC 2998
HCT-116 = test system: HCT-116
HCT-15 = test system: HCT-15
HL-60 = test system: HL-60
HOP-62 = test system: HOP-62
HOP-92 = test system: HOP-92
HT-29 = test system: HT-29
Hs-578T = test system: Hs-578T
IGROV-1 = test system: IGROV-1
K562 = test system: K562
KM12 = test system: KM12
LOX IMVI = test system: LOX IMVI
M14 = test system: M14
MCF7 = test system: MCF7
MDA-MB-231 = test system: MDA-MB-231
MDA-MB-435 = test system: MDA-MB-435
MDA-N = test system: MDA-N
MOLT-4 = test system: MOLT-4
Malme-3M = test system: Malme-3M
NCI-H226 = test system: NCI-H226
NCI-H23 = test system: NCI-H23
NCI-H460 = test system: NCI-H460
NCI-H522 = test system: NCI-H522
NCI/ADR-RES = test system: NCI/ADR-RES
OVCAR-3 = test system: OVCAR-3
OVCAR-4 = test system: OVCAR-4
OVCAR-8 = test system: OVCAR-8
PC-3 = test system: PC-3
RPMI-8226 = test system: RPMI-8226
RXF 393 = test system: RXF 393
SF-268 = test system: SF-268
SF-295 = test system: SF-295
SF-539 = test system: SF-539
SK-MEL-28 = test system: SK-MEL-28
SK-MEL-2 = test system: SK-MEL-2
SK-MEL-5 = test system: SK-MEL-5
SK-OV-3 = test system: SK-OV-3
SN12C = test system: SN12C
SNB-19 = test system: SNB-19
SNB-75 = test system: SNB-75
SW-620 = test system: SW-620
T47D = test system: T47D
TK-10 = test system: TK-10
U-251 = test system: U-251
UACC-257 = test system: UACC-257
UACC-62 = test system: UACC-62
UO-31 = test system: UO-31
A498 = test system: A498
OVCAR-5 = test system: OVCAR-5

Cc1c(-c2nc3ccccc3[nH]2)c(=O)n(-c2ccccc2)n1C
GI50 (786-0): > 100 µM (inactive) | GI50 (A549): > 100 µM (inactive) | GI50 (ACHN): > 100 µM (inactive) | GI50 (BT-549): > 100 µM (inactive) | GI50 (CAKI-1): > 100 µM (inactive) | GI50 (CCRF-CEM): > 100 µM (inactive) | GI50 (COLO 205): > 100 µM (inactive) | GI50 (DU-145): > 100 µM (inactive) | GI50 (EKVX): > 100 µM (inactive) | GI50 (HCC 2998): > 100 µM (inactive) | GI50 (HCT-116): > 100 µM (inactive) | GI50 (HCT-15): > 100 µM | GI50 (HL-60): > 100 µM (inactive) | GI50 (HOP-62): > 100 µM (inactive) | GI50 (HOP-92): > 100 µM (inactive) | GI50 (HT-29): > 100 µM (inactive) | GI50 (Hs-578T): > 100 µM (inactive) | GI50 (IGROV-1): > 100 µM (inactive) | GI50 (K562): > 100 µM (inactive) | GI50 (KM12): > 100 µM (inactive) | GI50 (LOX IMVI): > 100 µM (inactive) | GI50 (M14): > 100 µM (inactive) | GI50 (MCF7): > 100 µM (inactive) | GI50 (MDA-MB-231): > 100 µM (inactive) | GI50 (MDA-MB-435): > 100 µM (inactive) | GI50 (MDA-N): > 100 µM (inactive) | GI50 (MOLT-4): > 100 µM (inactive) | GI50 (Malme-3M): > 100 µM (inactive) | GI50 (NCI-H226): > 100 µM (inactive) | GI50 (NCI-H23): > 100 µM (inactive) | GI50 (NCI-H460): > 100 µM (inactive) | GI50 (NCI-H522): > 100 µM (inactive) | GI50 (NCI/ADR-RES): > 100 µM (inactive) | GI50 (OVCAR-3): > 100 µM (inactive) | GI50 (OVCAR-4): > 100 µM (inactive) | GI50 (OVCAR-8): > 100 µM (inactive) | GI50 (PC-3): > 100 µM (inactive) | GI50 (RPMI-8226): > 100 µM (inactive) | GI50 (RXF 393): > 100 µM (inactive) | GI50 (SF-268): > 100 µM (inactive) | GI50 (SF-295): > 100 µM (inactive) | GI50 (SF-539): > 100 µM (inactive) | GI50 (SK-MEL-28): > 100 µM (inactive) | GI50 (SK-MEL-2): > 100 µM (inactive) | GI50 (SK-MEL-5): > 100 µM (inactive) | GI50 (SK-OV-3): > 100 µM (inactive) | GI50 (SN12C): > 100 µM (inactive) | GI50 (SNB-19): > 100 µM (inactive) | GI50 (SNB-75): > 100 µM (inactive) | GI50 (SW-620): > 100 µM (inactive) | GI50 (T47D): > 100 µM (inactive) | GI50 (TK-10): > 100 µM (inactive) | GI50 (U-251): > 100 µM (inactive) | GI50 (UACC-257): > 100 µM (inactive) | GI50 (UACC-62): > 100 µM (inactive) | GI50 (UO-31): > 100 µM (inactive)

CO[P@]1(=O)O[C@@H](c2ccccc2)[C@H](O)[C@]1(O)c1ccccc1
GI50 (786-0): > 100 µM (inactive) | GI50 (A498): > 100 µM (inactive) | GI50 (A549): > 100 µM (inactive) | GI50 (ACHN): > 100 µM (inactive) | GI50 (BT-549): > 100 µM (inactive) | GI50 (CAKI-1): > 100 µM (inactive) | GI50 (CCRF-CEM): > 100 µM (inactive) | GI50 (COLO 205): > 100 µM (inactive) | GI50 (DU-145): > 100 µM (inactive) | GI50 (EKVX): > 100 µM (inactive) | GI50 (HCT-116): > 100 µM (inactive) | GI50 (HCT-15): > 100 µM | GI50 (HL-60): > 100 µM (inactive) | GI50 (HOP-92): > 100 µM (inactive) | GI50 (HT-29): > 100 µM (inactive) | GI50 (Hs-578T): > 100 µM (inactive) | GI50 (IGROV-1): > 100 µM (inactive) | GI50 (K562): > 100 µM (inactive) | GI50 (KM12): > 100 µM (inactive) | GI50 (LOX IMVI): > 100 µM (inactive) | GI50 (M14): > 100 µM (inactive) | GI50 (MCF7): > 100 µM (inactive) | GI50 (MDA-MB-231): > 100 µM (inactive) | GI50 (MDA-MB-435): > 100 µM (inactive) | GI50 (MDA-N): > 100 µM (inactive) | GI50 (Malme-3M): > 100 µM (inactive) | GI50 (NCI-H226): > 100 µM (inactive) | GI50 (NCI-H23): > 100 µM (inactive) | GI50 (NCI-H460): > 100 µM (inactive) | GI50 (NCI-H522): > 100 µM (inactive) | GI50 (NCI/ADR-RES): > 100 µM (inactive) | GI50 (OVCAR-3): > 100 µM (inactive) | GI50 (OVCAR-4): > 100 µM (inactive) | GI50 (OVCAR-5): > 100 µM (inactive) | GI50 (OVCAR-8): > 100 µM (inactive) | GI50 (PC-3): > 100 µM (inactive) | GI50 (RPMI-8226): > 100 µM (inactive) | GI50 (RXF 393): > 100 µM (inactive) | GI50 (SF-268): > 100 µM (inactive) | GI50 (SF-295): > 100 µM (inactive) | GI50 (SF-539): > 100 µM (inactive) | GI50 (SK-MEL-28): > 100 µM (inactive) | GI50 (SK-MEL-2): > 100 µM (inactive) | GI50 (SK-MEL-5): > 100 µM (inactive) | GI50 (SK-OV-3): > 100 µM (inactive) | GI50 (SN12C): > 100 µM (inactive) | GI50 (SNB-19): > 100 µM (inactive) | GI50 (SNB-75): > 100 µM (inactive) | GI50 (SW-620): > 100 µM (inactive) | GI50 (T47D): > 100 µM (inactive) | GI50 (TK-10): > 100 µM (inactive) | GI50 (U-251): > 100 µM (inactive) | GI50 (UACC-257): > 100 µM (inactive) | GI50 (UACC-62): > 100 µM (inactive) | GI50 (UO-31): > 100 µM (inactive)
